This is an account of results in PMC8395040 (International Journal of Molecular Sciences, 2021).

Data set [1] has as its system HT29. The data set can be described thus: MTT cytotoxicity assay, HT29. In kind it is cell-based. The conditions noted are these: Homo sapiens, HT-29, 72 h, MTT; for cytotoxicity at 50 µM: read-out: % Cytotoxicity (50 µM) HT29; for IC50: 0.05–50 µM. Here is the method:
(§1) Cytotoxicity assays were performed by using the MTT reduction method as described previously. Briefly, cancer cell lines were plated in flat-bottom 96-well plates at a cell concentration of 5 × 10^3 cells/well for the fastest growing lines, such as HEK293 and HT29 cells and 1 × 10^4 cells/well for more slowly growing lines, such as HCT116, H1975, BxPC-3, AsPC-1, B16-F10 and DAOY. Then, cells were incubated with the synthesised compounds at different concentrations (from 0.05 to 50 µM) in 200 µL with 10% FBS in RPMI 1640 or DMEM F12 culture medium at 37 °C for 72 h. Later, 10 µL of MTT were added at a final concentration of 0.5 mg/mL, incubated at 37 °C for 4 h, and then solubilised with 10% sodium dodecyl sulphate (SDS) in 0.1 mM HCl and incubated overnight at 37 °C. Formazan formation was measured at 570 nm in a multiwell plate reader (Cytation 5, Biotek Instruments, Winooski, VT, USA). Three independent biological replicates were performed.

In a further data set the test system is H1975. The data set can be described thus: MTT cytotoxicity assay, H1975. The class given is cell-based. The conditions noted are these: Homo sapiens, NCI-H1975, 72 h, MTT; for cytotoxicity at 50 µM: read-out: % Cytotoxicity (50 µM) H1975; for IC50: 0.05–50 µM. Here is the method: as §1
The test system of a further data set is BxPC-3. The data set is described as follows: MTT cytotoxicity assay, BxPC-3. The class given is cell-based. The note with it: Homo sapiens, 72 h, 0.05–50 µM. The method, then: as §1
Data set [2] can be described thus: MTT cytotoxicity assay, HEK293 control cells.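 Note: Read-out is formazan absorbance at 570 nm from MTT reduction in 96-well plates, with three independent biological replicates.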 The class given is cell-based, human. The note with it: human, HEK293 cells; 50 µM, 72 h, MTT.
Data set [3] deals with HEK293. The data set can be described thus: MTT cytotoxicity assay, HEK293 control cells.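 For all read-outs here: Read-out is formazan absorbance at 570 nm from MTT reduction in 96-well plates, with three independent biological replicates.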 The note with it: for IC50: Homo sapiens, HEK293, MTT, 72 h, non-cancer cell line. The class given is cell-based, human.
For data set [4], the system named is HT29. The data set is described as follows: CFSE proliferation assay, HT29. In kind it is cell-based, human. The note with it: 19 µM, 48 h. The method, then:
(§2) HT29 and HEK293 cells were resuspended at 1 × 10^6/mL in DMEM F12 without FBS. A 5 mM CFSE stock solution carboxyfluorescein diacetate succinimidyl ester (Cell Proliferation Kit, Life Technologies, Carlsbad, CA, USA) in DMSO was added to a final concentration of 5 µM and incubated at 37 °C for 15 min protected from light. At the end of the incubation period, the cells were immediately washed twice in cold PBS 1X/no-FBS. Cells were washed three times in PBS 1×/10%-FBS and resuspended in the same medium and plated in 12-well plates at a density of 1 × 10^5 cells/200 µL medium and grown overnight at 37 °C in a 5% CO2 humidified atmosphere. […] The cells were collected and then analysed by flow cytometry (BD; FACScanto II, Mountain View, CA, USA) and data were processed using FCS Express v6 software. Two independent biological replicates were performed.

Data set [5] has as its system HEK293. The data set can be described thus: CFSE proliferation assay, HEK293. The class given is cell-based, human. The conditions noted are these: 19 µM, 48 h. The method, then: as §2
Data set [6] relates to HT29. The data set is described as follows: Cell cycle analysis (PI, flow cytometry), HT29. The class given is cell-based, human. The note with it: 19 µM, 24 h, compared to the control. Here is the method: HT29 and HEK293 cells were plated in 6-well plates at a density of 2.0 × 10^5 cells/1.5 mL/well and grown overnight at 37 °C in a 5% CO2 humidified atmosphere. […] Aliquots of cells were collected, pelleted, washed, and fixed with ethanol (70% v/v) for at least 30 min at 4 °C. Cells were resuspended twice in PBS and, after centrifugation and elimination of the supernatant, they were finally resuspended in a PBS solution containing propidium iodide (PI; […], Invitrogen), RNase A ([…], Invitrogen). After a final incubation for 1 h in the dark at 37 °C, the PI signal was measured using a FACS Canto II Flow-cytometer (BD; Mountain View, CA) with a 488 nm excitation laser, captured and FACS DIVA was used as the acquisition software. The percentage of cells in each phase was analysed using the FCS Express v6 software. Two independent biological replicates were performed.

For another data set, the system named is HT29 cells. The data set can be described thus: Annexin V-FITC/PI assay, HT29. The class given is cell-based, human. The conditions noted are these: for early apoptosis (II): 19 µM, 3 or 12 h, untreated control 2.7%. The method, then: HT29 cells were seeded in a 12-well plate (5 × 10^5 cells per well) and incubated overnight in DMEM F12. […] The cells were collected and then processed for apoptosis analysis using the Annexin-V/PI Alexa Fluor 488 Apoptosis Kit (Invitrogen, Waltham, MA, USA) according to the manufacturer’s instructions. Finally, cells were analysed by flow cytometry (BD; FACS Canto II, Mountain View, CA, USA) and data were processed using the FCS Express v6 software. Three independent replicates were performed.

The next data set concerns HCT116. The data set is described as follows: Colony formation assay, HCT116. The class given is cell-based, human. The note with it: 5 µM, 14 d. The method, then:
HT29, HCT116, H1975 and HEK293 cells were seeded in a 6-well plate (1 × 10^4 cells per well) and incubated overnight in DMEM F12 supplemented with 10% FBS. […] After 72 h, the medium was replaced by fresh medium without stimuli, and cells were incubated for an additional 14 d to permit colony formation. The cells were fixed during 30 min with PFA 4% (v/v), washed and stained for 30 min at RT with a 5% solution of violet crystal for final colony counting. Three independent replicates were performed.

The next data set has as its system Gli1 mRNA in Smo−/− MEFs. The data set is described as follows: Gli1 mRNA (qRT-PCR) in Smo−/− MEFs. The note with it: 24 h and/or 48 h. In kind it is cell-based, mouse. The method, then:
HEK293T and Smo^−/−, Ptch^−/− MEFs cells were cultured in DMEM plus 10% FBS, 1% L-glutamine and antibiotics. Transient transfections were performed using DreamFectTM Gold transfection reagent (Oz Biosciences SAS, Marseille, France) following the manufacturer’s instructions and for varying periods of time depending on the experiment (24–72 h). […] Vehicle (DMSO) was used as control.
Total RNA was isolated with Trizol (Invitrogen/Life Technologies, Carlsbad, CA, USA) from Smo^−/− MEFs, Ptch^−/− MEFs or HT29 cells treated for 24 h and/or 48 h with 4s at different concentrations and reverse transcribed with the SensiFAST cDNA Synthesis Kit (Bioline Reagents Limited, London, UK). Quantitative real-time PCR (Q-PCR) analysis of Gli1 and housekeeping (HPRT, TBP, HMBS) mRNA levels was performed on each cDNA sample using the VIIA7 Real Time PCR System employing Assay-on-Demand Reagents (Life Technologies) as previously described. […] Each amplification reaction was performed in triplicate, the average of the three threshold cycles was used to calculate the amount of transcript in the sample (using SDS version 2.3 Software). mRNA quantification was expressed in arbitrary units as the ratio of the sample quantity to the quantity of the calibrator (ΔCt method). […]

Molecules are shown by their SMILES.

On to `CCCCCCn1cnc2c(-c3ccc(OC(F)(F)F)cc3)nc(N3CCN(c4ccncc4)CC3)nc21` [Compound 4s, 9-Hexyl-2-(4-(pyridin-4-yl)piperazin-1-yl)-6-(4-(trifluoromethoxy)phenyl)-9H-purine], for which the figures for the cytotoxicity at 50 µM with HT29 [1] and with H1975 were 25 ± 2.7% and 99 ± 0.2%, respectively. The IC50 was 15 ± 1.2 µM with HT29 [1], 1.5 ± 0.3 µM in the data set with H1975, 4.1 ± 0.9 µM with BxPC-3 and over 50 µM in the data set on HEK293 [3]. Moreover, the cytotoxicity at 72 h, 50 µM in [2] was under 50%. For the same compound, the “concentration at which effects on HEK293 cells were observed” value with HEK293 [3] is listed as “above 50 µM”. Besides, the “HT29 cell proliferation (CFSE)” value with HT29 [4] is given as “significantly reduced HT29 cell proliferation”. The “HEK293 cell proliferation (CFSE)” value with HEK293 [5] is “no effect”. Besides, the “decrease in S phase” value with HT29 [6] is 12%. The “increase of the G1/G0 phase” value with HT29 [6] was determined as 24%. Moreover, the “early apoptosis (II)” value with HT29 cells worked out at 64.6%. In the data set with HT29 cells (Homo sapiens, HT-29, 3 or 12 h, control around 95.7%, read-out: cell viability (Annexin V-FITC/PI)), the viability at 19 µM is about 33.8%. Besides, the “colony formation HCT116” value in the data set with HCT116 is listed as “totally inhibited the formation of colonies”. Also, the “GLI1 mRNA levels in Smo−/− MEFs” value in the data set with Gli1 mRNA in Smo−/− MEFs was “did not affect the mRNA levels of GLI1”.

As for `CS(=O)(=O)c1ccc(C(=O)Nc2ccc(Cl)c(-c3ccccn3)c2)c(Cl)c1` [Vismodegib, reference compound], the cytotoxicity at 50 µM is under 50% with HT29 [1] and 53 ± 1.2% with H1975. Besides, the concentration for half-maximal inhibition (IC50) with HT29 [1], with H1975, in the data set with BxPC-3 and in the data set with HEK293 [3] was over 50 µM each time. For the same compound, the cytotoxicity at 72 h, 50 µM in data set [2] was under 50%. The “HT29 cell proliferation (CFSE)” value in the data set with HT29 [4] was “less effect on reducing proliferation than 4s”. Also, the “HEK293 cell proliferation (CFSE)” value with HEK293 [5] is “less effect on reducing proliferation than 4s”. Moreover, in the data set on HT29 [6], the “increase of the G1/G0 phase” value is 10%. For the same compound, the “early apoptosis (II)” value in the data set with HT29 cells is “no statistically significant differences”. Further, in the data set on HCT116, the “colony formation HCT116” value was “less effective than 4s”. For the same compound, in the data set on Gli1 mRNA in Smo−/− MEFs, the “GLI1 mRNA levels in Smo−/− MEFs” value is given as “did not affect the mRNA levels of GLI1”.
